In US20260335299A1, “SUBSTITUTED OXOISOINDOLINYL PIPERIDINE-2,6-DIONE COMPOUND AS ANTICANCER AGENT” (BRISTOL-MYERS SQUIBB COMPANY, priority 2023, published 2026):
Read-outs that look alike come from different tables or passages of the source.

Key:
Format in all cases: cell-based
IKZF2 Helios = IKZF2 Helios (Homo sapiens, UniProt Q96SW2+Q9UKS7); assay: Jurkat Cellular Degradation Assay (Helios); design: endogenous in cells; host or cells: Jurkat cells; conditions: Jurkat cells, 72 h
Method: Jurkat cells were plated at 80,000 cells/well in 40 μL RPMI+10% FBS in a 384-well cell culture plate prior to using acoustic dispensing technology for adding a compound of interest. Cell cultures were incubated for 72 h at 37° C. and 5% CO2. In order to facilitate analysis, cell cultures were spun down at 200 rpm for 5 min and the supernatant was discarded. After shaking the plate to dislodge the cell pellet, cells were resuspended in 50 μL of Fixation Buffer (eBioscience FoxP3 buffer set 00-5523-00) for 60 min at room temperature. After centrifuging and discarding the supernatant, cells were permeabilized with 50 μL of Permeabilization buffer (eBioscience FoxP3 buffer set 00-5523-00) for 10 min at room temperature. […] Stained cells were resuspended in 25 μL of flow cytometry staining buffer [PBS+0.2% bovine serum albumin (BSA)] and analyzed using an Intellicyt Ique Plus flow cytometer.
Table A-1 lists the maximum observed degradation of the IKZF1 protein, IKZF2 protein, and IKZF3 protein as measured in the Jurkat Cellular Degradation assay. […]

IKZF3 Aiolos = IKZF3 Aiolos (Homo sapiens, UniProt Q96SW2+Q9UKT9); assay: Jurkat Cellular Degradation Assay (Aiolos); design: endogenous in cells; host or cells: Jurkat cells; conditions: Jurkat cells, 72 h
Chain of IKZF3 Aiolos (Q9UKT9 whole entry): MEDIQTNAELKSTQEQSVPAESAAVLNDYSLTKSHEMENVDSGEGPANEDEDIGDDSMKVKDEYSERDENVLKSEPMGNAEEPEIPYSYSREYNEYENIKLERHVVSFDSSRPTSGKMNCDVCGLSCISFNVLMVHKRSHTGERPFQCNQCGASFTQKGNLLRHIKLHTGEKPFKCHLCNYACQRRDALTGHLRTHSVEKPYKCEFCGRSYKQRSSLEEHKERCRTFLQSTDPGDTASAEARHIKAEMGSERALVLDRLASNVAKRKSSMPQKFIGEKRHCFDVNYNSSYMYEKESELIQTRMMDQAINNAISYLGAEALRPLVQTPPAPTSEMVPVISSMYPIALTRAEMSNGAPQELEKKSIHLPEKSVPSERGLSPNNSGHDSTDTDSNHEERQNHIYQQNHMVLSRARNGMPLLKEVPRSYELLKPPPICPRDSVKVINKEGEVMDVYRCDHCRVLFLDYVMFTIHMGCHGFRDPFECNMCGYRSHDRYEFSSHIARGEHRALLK
Chain of IKZF3 Aiolos (Q96SW2 whole entry): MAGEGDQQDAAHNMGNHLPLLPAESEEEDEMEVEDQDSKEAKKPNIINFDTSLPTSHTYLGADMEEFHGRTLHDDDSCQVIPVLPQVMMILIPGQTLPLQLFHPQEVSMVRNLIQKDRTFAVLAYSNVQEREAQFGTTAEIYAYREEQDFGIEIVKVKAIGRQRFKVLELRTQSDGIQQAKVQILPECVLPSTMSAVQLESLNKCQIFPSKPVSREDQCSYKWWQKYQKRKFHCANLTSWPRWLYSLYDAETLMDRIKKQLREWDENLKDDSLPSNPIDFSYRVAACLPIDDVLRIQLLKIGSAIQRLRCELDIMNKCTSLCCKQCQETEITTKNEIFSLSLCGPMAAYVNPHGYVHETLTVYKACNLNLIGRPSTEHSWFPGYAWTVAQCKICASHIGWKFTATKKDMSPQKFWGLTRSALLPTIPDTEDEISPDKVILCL
Chain of IKZF3 Aiolos (Q16531 whole entry partner): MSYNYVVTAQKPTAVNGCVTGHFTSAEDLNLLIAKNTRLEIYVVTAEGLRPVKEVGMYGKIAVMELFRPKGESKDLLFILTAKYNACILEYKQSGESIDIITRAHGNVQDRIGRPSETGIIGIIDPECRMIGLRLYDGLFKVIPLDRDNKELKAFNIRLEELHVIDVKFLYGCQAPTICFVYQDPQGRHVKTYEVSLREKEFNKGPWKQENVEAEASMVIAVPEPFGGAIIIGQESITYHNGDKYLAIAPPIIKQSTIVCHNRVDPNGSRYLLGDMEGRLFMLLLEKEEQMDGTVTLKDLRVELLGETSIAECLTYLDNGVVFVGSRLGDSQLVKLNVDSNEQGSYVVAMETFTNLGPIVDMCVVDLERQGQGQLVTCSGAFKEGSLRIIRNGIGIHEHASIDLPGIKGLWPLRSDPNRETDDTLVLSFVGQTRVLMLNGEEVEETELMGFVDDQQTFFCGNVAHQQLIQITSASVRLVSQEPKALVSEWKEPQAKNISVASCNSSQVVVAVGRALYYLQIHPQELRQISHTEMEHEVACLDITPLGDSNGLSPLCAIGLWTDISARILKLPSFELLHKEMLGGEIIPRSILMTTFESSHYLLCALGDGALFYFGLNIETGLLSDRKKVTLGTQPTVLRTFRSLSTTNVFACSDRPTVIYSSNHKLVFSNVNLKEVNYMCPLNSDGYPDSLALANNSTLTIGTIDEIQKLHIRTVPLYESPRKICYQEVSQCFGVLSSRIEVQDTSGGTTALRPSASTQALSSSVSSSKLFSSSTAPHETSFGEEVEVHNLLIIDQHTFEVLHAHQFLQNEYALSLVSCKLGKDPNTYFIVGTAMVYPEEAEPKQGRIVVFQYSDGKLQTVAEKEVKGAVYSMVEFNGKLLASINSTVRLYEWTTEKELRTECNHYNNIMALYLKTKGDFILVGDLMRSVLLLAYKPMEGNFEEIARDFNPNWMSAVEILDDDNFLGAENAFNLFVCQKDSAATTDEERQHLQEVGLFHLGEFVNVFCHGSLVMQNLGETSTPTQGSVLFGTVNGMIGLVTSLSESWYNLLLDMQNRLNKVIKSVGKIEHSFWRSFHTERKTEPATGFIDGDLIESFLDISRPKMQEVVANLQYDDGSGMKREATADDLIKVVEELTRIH
Method: Jurkat cells were plated at 80,000 cells/well in 40 μL RPMI+10% FBS in a 384-well cell culture plate prior to using acoustic dispensing technology for adding a compound of interest. Cell cultures were incubated for 72 h at 37° C. and 5% CO2. In order to facilitate analysis, cell cultures were spun down at 200 rpm for 5 min and the supernatant was discarded. After shaking the plate to dislodge the cell pellet, cells were resuspended in 50 μL of Fixation Buffer (eBioscience FoxP3 buffer set 00-5523-00) for 60 min at room temperature. After centrifuging and discarding the supernatant, cells were permeabilized with 50 μL of Permeabilization buffer (eBioscience FoxP3 buffer set 00-5523-00) for 10 min at room temperature. Following permeabilization, cells were spun down and the supernatant was replaced with 20 μL fluorescently labelled antibodies against Helios, Ikaros and Aiolos or corresponding Isotype controls in 1× Permeabilization buffer (Ikaros-Alexa488 [Biolegend, Cat #368408, 1:50], Helios-PE [CST, Cat #29360, 1:50], Aiolos-Alexa647 [Biolegend, Cat #371106 Biolegend, 1:25]) and staining reactions were incubated for 1 h at room temperature while protected from light. Subsequently, 30 μL of 1× Permeabilization buffer was added prior to centrifuging the cells and discarding the supernatant. Stained cells were resuspended in 25 μL of flow cytometry staining buffer [PBS+0.2% bovine serum albumin (BSA)] and analyzed using an Intellicyt Ique Plus flow cytometer.
Table A-1 lists the maximum observed degradation of the IKZF1 protein, IKZF2 protein, and IKZF3 protein as measured in the Jurkat Cellular Degradation assay. The results in Table A-I were rounded to two digits. In the Jurkat Cellular Degradation assay, a value of 100% indicated no detectable protein remaining or complete degradation of the protein; and a value of 0% indicated no detectable degradation of the protein by the test compound.

IKZF4 Eos = biological target: T1, IKZF4 Eos (Homo sapiens, UniProt Q96SW2+Q9H2S9); assay: Human Regulatory T Cell Reprogramming Assay (Eos)
T1 construct: Human CD4+ T cells were isolated from fresh healthy leukopaks; endogenous in cells; host or cells: FACS-sorted primary human regulatory T cells from healthy leukopaks
T1 sequence (Q9H2S9 whole entry): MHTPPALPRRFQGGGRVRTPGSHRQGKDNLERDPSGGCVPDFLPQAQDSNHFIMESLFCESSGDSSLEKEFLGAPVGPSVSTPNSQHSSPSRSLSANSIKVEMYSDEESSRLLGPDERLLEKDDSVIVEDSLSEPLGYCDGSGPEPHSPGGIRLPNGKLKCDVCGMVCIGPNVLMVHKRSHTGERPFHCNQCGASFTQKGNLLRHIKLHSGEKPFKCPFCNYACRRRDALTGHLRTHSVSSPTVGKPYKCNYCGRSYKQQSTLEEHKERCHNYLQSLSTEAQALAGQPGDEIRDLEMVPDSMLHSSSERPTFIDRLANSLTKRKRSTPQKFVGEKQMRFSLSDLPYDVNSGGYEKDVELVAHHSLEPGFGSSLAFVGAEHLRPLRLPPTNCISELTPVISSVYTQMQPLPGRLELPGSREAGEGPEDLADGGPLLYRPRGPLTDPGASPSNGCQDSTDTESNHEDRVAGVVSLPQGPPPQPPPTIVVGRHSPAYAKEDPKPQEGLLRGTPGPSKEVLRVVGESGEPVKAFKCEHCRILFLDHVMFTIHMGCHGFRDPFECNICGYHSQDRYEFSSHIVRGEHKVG
T1 sequence (Q96SW2 whole entry): as the sequence (Q96SW2 whole entry) above
T1 sequence (Q16531 whole entry partner): as the sequence (Q16531 whole entry partner) above
Method: Human CD4+ T cells were isolated from fresh healthy leukopaks (Stemcell Technologies) using the RosetteSep Human CD4+ T cell enrichment cocktail (Stemcell Technologies) and Ficoll density gradient centrifugation. Leukopaks were diluted with an equal volume of phosphate-buffered saline (PBS [Gibco]) supplemented with 2% fetal bovine serum (FBS, VWR Lifescience) and incubated with RosetteSep Human CD4^+ T cell enrichment cocktail for 20 minutes before layering on Ficoll-Paque Plus solution (GE Health Care). The cell-rich interface layer was harvested and washed twice with PBS supplemented with 2% FBS. Regulatory T cells were then isolated manually using the EasySep Human CD4^+CD1271WCD25^+ Regulatory T cell isolation kit (Stemcell Technologies) according to the manufacturer's instructions. Cells were rested overnight in Roswell Park Memorial Institute (RPMI) 1640 media (Gibco) supplemented with 10% FBS, Pen/Strep (Gibco), MEM-NEAA (Gibco), and sodium pyruvate (Gibco) in a humidified incubator (37° C., 5% CO2). Cells were then stained for CD4 (clone: RPA-T4, Biolegend), CD25 (clone: 2A3, BD Biosciences), and CD127 (clone: hIL-7R-M21, BD Biosciences). CD4+CD12710WCD25+ cells were sorted on a BD FACS Aria Fusion sorter to a purity of 95% or greater. Sorted cells were immediately used or cryopreserved for downstream assays.
Fresh or cryopreserved FACS-sorted CD4+CD127^lowCD25^+ Treg cells were cultured at 25,000-50,000 cells/well of 96-well round bottom plates in RPMI 1640 media (Gibco) supplemented with 10% FBS, Pen/Strep (Gibco), MEM-NEAA (Gibco), and sodium pyruvate (Gibco). Cells were stimulated with Treg Xpander beads (Thermo Fisher) at cells-to-beads ratio of 1:4 in the presence of 500 U/mL recombinant human IL-2 (Proleukin). Compounds were added at titrated doses and cells were incubated at 37° C., 5% CO2 for 12-13 days. Recombinant human IL-2 and compound were replenished every 2-3 days during the entire culture duration. On day 12 or 13, cells were restimulated with phorbol 12-myristate 13-acetate (PMA) and ionomycin in the presence of the protein transport inhibitors brefeldin A and monensin (eBioscience Cell Stimulation Cocktail plus protein transport inhibitors, 500×, Catalog number 00-4975-93) before proceeding with flow cytometry staining and analysis.
For flow cytometry staining, cells were washed twice with flow cytometry staining buffer (Thermo Fisher) and incubated in Human Tru-stain Fc block (Biolegend) for 10 minutes before adding eFluor780 viability dye (Thermo Fisher) and surface marker antibody cocktail for 30 minutes at 4° C. […] Data were analyzed using FlowJo version 10 and GraphPad Prism Software.
Table C-1 lists the maximum observed degradation of the IKZF2 protein and IKZF4 protein as measured in the Human Regulatory T Cell Reprogramming assay. […]

[1] = concentration reducing protein level by 50% compared to DMSO alone

Chain of IKZF2 Helios (Q9UKS7 whole entry): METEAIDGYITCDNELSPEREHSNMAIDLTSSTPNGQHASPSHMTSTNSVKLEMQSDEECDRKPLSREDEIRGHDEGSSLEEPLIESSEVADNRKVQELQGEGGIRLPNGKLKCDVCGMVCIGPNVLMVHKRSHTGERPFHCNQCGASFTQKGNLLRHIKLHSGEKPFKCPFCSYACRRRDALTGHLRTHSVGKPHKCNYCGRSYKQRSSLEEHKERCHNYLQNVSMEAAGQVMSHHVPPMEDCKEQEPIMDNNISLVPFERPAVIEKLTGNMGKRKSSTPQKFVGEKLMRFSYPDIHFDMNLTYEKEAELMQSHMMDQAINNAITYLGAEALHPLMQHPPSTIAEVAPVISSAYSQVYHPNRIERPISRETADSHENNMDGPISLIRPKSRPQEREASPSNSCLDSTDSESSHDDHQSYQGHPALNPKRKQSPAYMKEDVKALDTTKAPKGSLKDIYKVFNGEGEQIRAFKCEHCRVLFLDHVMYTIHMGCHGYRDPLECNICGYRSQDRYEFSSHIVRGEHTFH
Chain of IKZF2 Helios (Q96SW2 whole entry): as the sequence (Q96SW2 whole entry) above
Chain of IKZF2 Helios (Q16531 whole entry partner): as the sequence (Q16531 whole entry partner) above

Compound: Nc1nc(-c2ccc3c(c2F)CN(C2CCC(=O)NC2=O)C3=O)ccc1CN1CC(C2CCC(F)(F)CC2)C1 (centres unmarked) [Example 1, 3-(5-(6-Amino-5-((3-(4,4-difluorocyclohexyl)azetidin-1-yl)methyl)pyridin-2-yl)-4-fluoro-1-oxoisoindolin-2-yl) piperidine-2,6-dione]
- DC50 (IKZF2 Helios; [1]): 4.4 nM
- Dmax (IKZF2 Helios; human, read-out: IKZF2 Helios max % deg. observed): 92%
- DC50 (IKZF3 Aiolos; [1]): > 10000 nM
- Dmax (IKZF3 Aiolos; human, read-out: IKZF3 Aiolos max % deg. observed): 48%
- Dmax (IKZF4 Eos; Regulatory T cell, human, text summary of Table C-1, read-out: decreased the level of IKZF4 (Eos)): ≥ 71%
- Dmax (IKZF4 Eos; Regulatory T cell, human Treg cells, stimulated, 12-13 days, read-out: IKZF4 Eos Maximum Observed Degradation): 71 to 72%
- DC50 (IKZF4 Eos; human Treg cells, stimulated, 12-13 days, concentration reducing protein level by 50% compared to DMSO alone): 1.3 to 1.6 nM
- Dmax (IKZF4 Eos; summary table, Human T Regulatory Cell Reprogramming Assay (Table C-1), read-out: IKZF4 Eos max % deg. observed (Table E)): 71 to 72%
